Results on 3 molecules are retold here after patent US20230149355A1, “COMPOSITIONS AND METHODS FOR MODULATING TRP CHANNEL ACTIVITY” (priority 2020, published 2023).

The test system of one assay is zebrafish EECs. Description: In vivo EEC activity, Tg(neurod1:CaMPARI) zebrafish. The source says:
CaMPARI undergoes permanent green-to-red photoconversion (PC) under 405 nm light when calcium is present. This permanent conversion records the calcium activity for all areas illuminated by PC-light. Red fluorescence intensity correlates with calcium activity during photoconversion (Fosque et al., 2015). In the Tg(neurod1:CaMPARI) zebrafish line, the CaMPARI (calcium-modulated photoactivatable ratiometric integrator) transgene is expressed under control of the −5 kb promoter cloned from the zebrafish neurod1 locus. CaMPARI mRNA is transcribed and the CaMPARI protein is expressed in cells that are able to activate the neurod1 promoter. There are multiple cell types in the zebrafish body that are sufficient to activate the neurod1 promoter, including all EECs in the intestine (Ye et al., 2019). CaMPARI protein is a calcium indicator protein that binds calcium and converts from green fluorescence to red fluorescence in the presence of UV light. This protein is engineered and described in detail in a previous publication (Fosque et al., 2015). This transgenic model was used to measure the level of intracellular calcium in EECs. […]

The subject of a further assay is mouse duodenum. The assay is described as follows: Amperometric measurement of 5-HT secretion, mouse small intestine. Conditions: 50 μM HC030031. From the text:
(§1) These experiments using C57BL/6J mice were approved by the Flinders University Animal Welfare Committee (number 965-19) and human ileum tissue was collected from resected small and large intestine from patients that gave written informed consent under the approval of the Southern Adelaide Clinical Human Research Ethics Committee (number 50.07) as previous (Sun et al., 2019a). Mice were euthanized at 8 to 12 weeks by isoflurane overdose followed by cervical dislocation. The duodenum was removed and placed in Krebs solution oxygenated with 95% O2, 5% CO2. A midline incision was made along the duodenum to create a flat sheet, the section was pinned with the mucosal side up in an organ bath lined with Sylgard and containing oxygenated Krebs solution. Serotonin release was measured using amperometry. A carbon-fibre electrode (5-μm diameter, ProCFE; Dagan Corporation, Minneapolis, Minn.), was lowered above the mucosa and 400 mV potential was applied to the electrode causing oxidation of serotonin (Zelkas et al., 2015). […] The change in amplitude due to serotonin oxidation was recorded using an EPC-10 amplifier and Pulse software (HEKA Electronic, Lambrecht/Pfalz, Germany), and samples at 10 kHz and low-pass filtered at 1 kHz. Data was assessed as peak current during each treatment. Data was analyzed comparing all groups using one-way ANOVA with Tukey's post-hoc test. […]

The test system of a further assay is human ileum. Description: Amperometric measurement of 5-HT secretion, human small intestine. Particulars: 50 μM HC030031.
Description: as §1

In a further assay the test system is zebrafish EECs (Trpa1). Description: In vivo EEC calcium, Tg(neurod1:Gcamp6f) zebrafish. Conditions: trpa1b-dependent. Here is the method: To record in vivo EEC activity using the Tg(neurod1:Gcamp6f) system, a published protocol with slight modification (Ye et al., 2019) was used. In brief, unanesthetized zebrafish larvae were gently mounted in 3% methylcellulose. Excess water was removed and zebrafish larvae were gently positioned with right side up. Zebrafish were then moved onto an upright Leica M205 FA fluorescence stereomicroscope equipped with a Leica DFC 365FX camera. The zebrafish larvae were allowed to recover for 2 mins before 100 μL of test agent was pipetted directly in front of the mouth region. Images were then recorded every 10 seconds. The data shown in FIG. 2O-R, depicting the EEC responses to E. tarda stimulation, were obtained by mounting unanesthetized zebrafish larvae in 1% low melting agarose. A window (5×5 mm) was cut to expose the head region of the zebrafish. 10 μL of E. tarda culture [˜10^9 Colony Forming Unit (CFU)] were delivered at the zebrafish mouth area. Images were recorded every 10 secs for 20 mins. Image processing and analysis were performed using FIJI software. Time-lapse fluorescence images were first aligned to correct for experimental drift using the plugin “align slices in stack.” Normalized correlation coefficient matching and bilinear interpolation methods for subpixel translation were used for aligning slices (Tseng et al., 2012). The plugin “rolling ball background subtraction” with the rolling ball radius=10 pixels was used to remove the large spatial variation of background intensities. The Gcamp6f fluorescence intensity in the intestinal region was then calculated for each time point. The ratio of maximum fluorescence (Fmax) and the initial fluorescence (F0) was used to measure EEC calcium responses.
For EEC Trpa1 activation using the Optovin platform, zebrafish larvae were treated with 10 μM Optovin overnight. Following Optovin treatment, unanesthetized zebrafish were mounted in 1% LMA and imaged under a 780 upright Zeiss confocal microscope using 20× water objective lenses. For all the experiments, the mid-intestine region was imaged (FIG. 10D). The intestinal epithelium was selected as the region of interest (ROI) (FIG. 10A). Serial images were obtained at 1 s/frame. A 405 nm pulse of light was applied to the ROI at 1 pulse/10 s. For some experiments (FIG. 7D-F, FIG. 10B-G), the images were obtained at 10 s/frame. When measuring Optovin effects on intestinal motility in ret−/−, sox10−/− or tph1b−/− zebrafish larvae, embryos were collected from heterozygous zebrafish. ret−/− zebrafish were identified by lack of ENS and deflated swim bladder (Knight et al., 2011), sox10−/− zebrafish were identified by lack of pigment (Rolig et al., 2017), and tph1b−/− zebrafish were identified by PCR-based genotyping (Tornini et al., 2017).
To determine whether Optovin-UV or ChR2 was sufficient to activate EECs, Tg(neurod1:Gcamp6f) zebrafish were used. […] The Gcamp6f signal was recorded with 488 nm laser intensity less than 0.5. The zebrafish intestinal motility is quantified through recorded image series of zebrafish intestine using the method similar as previously described (Ganz et al., 2018). […] When calculating the mean velocity, only the mean velocity magnitude was calculated, which therefore doesn't account for the movement direction. The MTrackJ FIJI plugin was used to quantify the mean velocity magnitude (Meijering et al., 2012).

The subject of assay [1] is vagal sensory neurons. The assay is described as follows: In vivo calcium imaging of vagal sensory ganglia after microgavage. Particulars: WT; enteric microgavage ~8 nl, AITC 100 mM, indole 1 mM, IAld 1 mM. On the set-up: species or system zebrafish. Here is the method:
For delivering bacterial or chemicals specifically to the intestine, the established microgavage technique (Cocchiaro and Rawls, 2013) was adopted. Zebrafish were anesthetized with 1 mg/mL α-Bungarotoxin (α-BTX) and the gavage procedure was performed as previously described using microinjection station (Cocchiaro and Rawls, 2013). For bacteria gavage experiments, 1 ml of overnight bacterial culture was harvested, pelleted, washed with PBS and resuspended in 100 ul PBS.˜8 nl was then delivered into the zebrafish intestine using microgavage. The gavaged zebrafish was then transferred into egg water and mounted in 1% LMA for imaging. For chemical gavage experiments, ˜8 nl of AITC (100 mM), indole (1 mM) and IAld (1 mM) was gavaged into the intestine.
Tg(neurod1:Gcamp6f); Tg(neurod1:TagRFP) zebrafish were used to record vagal sensory ganglia calcium activity in vivo. Zebrafish were anesthetized with 1 mg/mL α-Bungarotoxin (α-BTX) and gavaged with chemical compounds or bacteria as described (Naumann et al., 2016). Zebrafish larvae were mounted in 1% LMA and imaged under a Zeiss 780 upright confocal microscope. Z-stack images of the entire vagal ganglia were collected as serial images at 10 mins/frame and processed in FIJI. Individual vagal sensory neurons were identified and the Gcamp6f to TagRFP fluorescence ratios of individual vagal sensory neurons were calculated.

The subject of assay [2] is vagal sensory neurons. The assay is described as follows: pERK immunofluorescence of vagal ganglia after microgavage. The class given is in vivo, zebrafish. The procedure:
To quantify vagal activity by pERK staining, published protocol with slight modification (Randlett et al., 2015) was used. Zebrafish larvae were quickly collected by funneling through a 0.75 mm cell strainer and dropped into a 5 mL petri dish containing ice cold fix buffer (2.5% formalin+0.25% Triton 100). Larvae were fixed overnight at 4° C., then washed 3 times in PT (PBS+0.3% Triton 100), treated with 150 mM Tris-HCl (PH=9) for 15 mins at 70° C., washed with PT and digested with 0.05% trypsin-EDTA on ice for 45 mins. Following digestion, samples were then washed with PT and transferred into block solution [PT+1% bovine serum albumin (BSA, Fisher)+2% normal goat serum (NGS, Sigma)+1% dimethyl sulfoxide (DMSO)]. The primary antibodies [pERK (Cell signaling); tERK (Cell signaling); GFP (Aves Lab)] were diluted in block solution (1:150 for pERK; 1:150 for tERK and 1:500 for GFP) and samples were incubated in 100 μl of primary antibody overnight at 4° C. Following primary antibody incubation, samples were then washed with PT and incubated with secondary antibody overnight at 4° C. Samples were then washed with PBS, mounted in 1% LMA and imaged using a Zeiss 780 upright confocal microscope.
For delivering bacterial or chemicals specifically to the intestine, the established microgavage technique (Cocchiaro and Rawls, 2013) was adopted. […]

For the molecule `CCCCCCCCCCCC(=O)O` [laurate], in the assay on zebrafish EECs (linoleate, oleate, laurate 1.66 mM, butyrate 2 mM, glucose 500 mM, vs water), the “Percentage of activated EECs (high red:green CaMPARI ratio)” value is given as “significantly increased”.

For `CC(C)c1ccc(NC(=O)Cn2cnc3c2c(=O)n(C)c(=O)n3C)cc1` [HC030031], in the assay with zebrafish EECs (WT fish, HC030031 280 μM, 2 hours before and during E. tarda stimulation), the “Effect on E. tarda's ability to induce EEC activation” value is “significantly inhibited”. For the same molecule, the “Effect on indole-induced 5-HT secretion, mouse small intestine” value in the assay with mouse duodenum is reported as “blocked”. The “Effect on indole-induced 5-HT secretion, human small intestine” value in the assay with human ileum is recorded as “blocked”.

`C=CCN=C=S` [AITC, Allyl isothiocyanate]: in the assay on zebrafish EECs (Trpa1), the “Zebrafish EEC activation (Gcamp6f fluorescence)” value is “EEC activation”. Besides, in the assay on vagal sensory neurons [1], the “Gcamp6f fluorescence in a subset of vagal sensory neurons” value is recorded as “significantly increased”. Besides, the “Vagal activation (pERK+) in the absence of EECs” value with vagal sensory neurons [2] (EEC-ablated zebrafish) is listed as “abrogated”. Moreover, in the assay with vagal sensory neurons [2] (WT, microgavage, compared to PBS), the “Number of pERK+ vagal cells” value is “increased”.
